Test results as given in patent US20220000964A1, “Compositions and Methods for Regulating Homeostasis of Chondrocytes, Extracellular Matrix, Articular Cartilage, and Phenotype of Arthritis” (Unigen, Inc., priority 2020, published 2022).
“And” between values parts separate entries of the source, which are not always exact repeats. Equal values may be shown once. Marks after values point to notes of the source that are not given here.

Legend:
Type in all cases: in vivo, rat
CIA rats [1] = assay: CIA rats, ankle diameter; design: Ankle diameter (Mean): unit not given here; conditions: for % Inhibition Ankle diameter (AUC): vs CIA + vehicle
CIA rats [2] = assay: Collagen-induced arthritis (CIA) rats, arthritis severity index; conditions: for % Inhibition Arthritis index (AUC): vs CIA + vehicle
Procedure: Male Sprague Dawley rats (7-8 weeks old, n=40) were purchased from Charles River Laboratories Inc. (Wilmington, Mass., USA) and acclimated upon arrival for two weeks before being assigned randomly to their respective treatment groups: G1=Normal control (−) (n=10/group), G2=collagen-induced arthritis (CIA)+Vehicle (0.5% Carboxy Methylcellulose) (n=10/group), G3=CIA+Methotrexate (+) (75 μg/kg) (n=10/group), and G4=CIA+AMK (+) (200 mg/kg) (n=10/group). Treatment was initiated two weeks before model induction and lasted for an additional three weeks thereafter. Collagen type-II (Lot #845) from bovine nasal septum and Incomplete Freund's adjuvant (IFA) (Lot #SLBR0642v) were purchased from Elastin Products Company (Owensville, Mich., USA) and Sigma (St. Louise, Mo., USA), respectively. All materials were kept at suitable temperatures as recommended by the manufacturer. At the time of preparation, 60 mg of collagen was weighed and added to pre-chilled 15 mL 0.1 M acetic acid in a 60 mL-sized flask with a magnetic stirrer to yield 4 mg/mL concentration (Brand, et al., 2003; Rosloniec et al., 2001).
The mixture was dissolved by gently stirring overnight at 4° C. The next morning, the dissolved collagen was emulsified with equal volume of IFA (15 mL) to achieve a final concentration of 2 mg/mL collagen. Rats sedated with isoflurane were then primed intradermally with 400 μL of the emulsified collagen at the base of their tail at two sites using a 1 mL syringe fitted with a 26 G needle. The dissolved mixture was kept in an ice bucket and stirred between groups at the time of injection to preserve uniform consistency. On the seventh day, rats were inoculated with a booster dose of 2 mg/mL type II collagen emulsified with equal volume of incomplete adjuvant at 100 μL/rat/site.
Clinical findings such as arthritis severity index, paw thickness, ankle diameter (using Digital Absolute, Model #PK-0505CPX, Mitutoyo Corporation, Kawasaki, Japan), and pain sensitivity (using Randall Salitto, IITC Life Science Inc., Woodland Hills, Calif., USA) were monitored during the course of study. Urine was collected from overnight fasted rats using metabolic cages after three weeks of treatment post-model induction. At Necropsy, serum from the cardiac and synovial lavage (100 μL of saline was injected into the articular cavity and aspirated back to the syringe) for biomarkers and ankle joint for histopathology were collected from each animal.
Linear trapezoid rule was used to calculate area under the curve (AUC) for days 9-21. % Inhibition={(Mean value of treatment-mean value of CIA+)/(Mean value of control-mean value of CIA)}*100.
Male Sprague Dawley rats (7-8 weeks old, n=40) were purchased from Charles River Laboratories Inc. (Wilmington, Mass., USA) and acclimated upon arrival for two weeks before being assigned randomly to their respective treatment groups: G1=Normal control (−) (n=10/group), G2=collagen-induced arthritis (CIA)+Vehicle (0.5% Carboxy Methylcellulose) (n=10/group), G3=CIA+Methotrexate (+) (0.5 mg/kg) (n=10/group), and G4=CIA+AP (+) (200 mg/kg) (n=10/group). Treatment was initiated two weeks before model induction and lasted for an additional three weeks thereafter. Collagen type-II (Lot #845) from bovine nasal septum and Incomplete Freund's adjuvant (IFA) (Lot #SLBR0642v) were purchased from Elastin Products Company (Owensville, Mich., USA) and Sigma (St. Louise, Mo., USA), respectively. All materials were kept at suitable temperatures as recommended by the manufacturer. At the time of preparation, 60 mg of collagen was weighed and added to pre-chilled 15 mL 0.1 M acetic acid in a 60 mL-sized flask with a magnetic stirrer to yield 4 mg/mL concentration (Brand, et al., 2003; Rosloniec et al., 2001). The mixture was dissolved by gently stirring overnight at 4° C. The next morning, the dissolved collagen was emulsified with equal volume of IFA (15 mL) to achieve a final concentration of 2 mg/mL collagen.

IL-1β = assay: CIA rats, serum IL-1β ELISA; conditions: AMK CIA study; MTX 75 μg/kg, AMK 200 mg/kg oral
Procedure: The presence of catabolic cytokines IL-1β, TNF-α, or IL-6 was measured using Rat IL-1, TNF-α, and IL-6 Quantikine ELISA kit from R and D Systems (product #: RLB00 for IL-1β, RTA00 for TNF-α, and R6000B for IL-6) as follows: diluted serum was added to a microplate coated with polyclonal IL-1, TNF-α, or IL-6 antibody and allowed to bind for 2 h at room temperature. The microplate was washed thoroughly to remove unbound serum and then a polyclonal enzyme-conjugated IL-1β, TNF-α, or IL-6 antibody was added and allowed to bind for 2 h at room temperature. Washing was repeated, enzyme substrate was added, and the plate was developed for 30 min at room temperature. After the addition of stop solution, the absorbance was read at 450 nm, multiplied by dilution factor, and the concentration of IL-1β/TNF-α/IL-6 calculated based on the absorbance readings of an IL-1β/TNF-α/TL-6 standard curve.

[3] = system: type II collagen synthesis and degradation; assay: CIA rats, Z score of type II collagen synthesis and degradation (PIIANP, uCTX-II)
Excerpt: Previously, Garnero et al measured these markers [Type II collagen synthesis and degradation: N-propeptide of type IIA procollagen (PIIANP) and urine CTX-II, respectively] and correlated them to findings on radiographs and arthroscopy of OA patients. […] They explained their observation that these patients have an uncoupling effect between collagen synthesis and degradation, which is leaning more towards the progression of OA.
Adapting their method, we calculated the Z-factor for cartilage synthesis and degradation using data from PIIANP and uCTX-II, respectively. For an intervention to drive the OA catabolic progression towards anabolic or regenerative activities, the Z-score values have to come close to zero.

[4] = AP study, MTX 0.5 mg/kg, AP 200 mg/kg
[5] = AP CIA study, Methotrexate 0.5 mg/kg, AP 200 mg/kg oral

Structure (SMILES): CN(Cc1cnc2nc(N)nc(N)c2n1)c1ccc(C(=O)N[C@@H](CCC(=O)O)C(=O)O)cc1 [Methotrexate]
- AUC(d9-d21) (Mean ± SD) Ankle diameter (CIA rats [1]; [4]): 30.94 ± 0.11
- Ankle diameter (Mean) (CIA rats [1]; Boost, MTX 75 μg/kg, AMK 200 mg/kg): 6.08
- Ankle diameter (Mean) (CIA rats [1]; Day 9, MTX 75 μg/kg, AMK 200 mg/kg): 6.12
- Ankle diameter (Mean) (CIA rats [1]; Day 10, MTX 75 μg/kg, AMK 200 mg/kg): 6.17
- Ankle diameter (Mean) (CIA rats [1]; Day 11, MTX 75 μg/kg, AMK 200 mg/kg): 6.33
- Ankle diameter (Mean) (CIA rats [1]; Day 12, MTX 75 μg/kg, AMK 200 mg/kg): 6.50*
- Ankle diameter (Mean) (CIA rats [1]; Day 13, MTX 75 μg/kg, AMK 200 mg/kg): 6.67*
- Ankle diameter (Mean) (CIA rats [1]; Day 14, MTX 75 μg/kg, AMK 200 mg/kg): 6.85*
- Ankle diameter (Mean) (CIA rats [1]; Day 15, MTX 75 μg/kg, AMK 200 mg/kg): 7.06*
- Ankle diameter (Mean) (CIA rats [1]; Day 16, MTX 75 μg/kg, AMK 200 mg/kg): 7.28*
- Ankle diameter (Mean) (CIA rats [1]; Priming, AP study, MTX 0.5 mg/kg, AP 200 mg/kg): 0.10
- Ankle diameter (Mean) (CIA rats [1]; Priming, MTX 75 μg/kg, AMK 200 mg/kg): 6.03
- Ankle diameter (Mean) (CIA rats [1]; day 17, MTX 75 μg/kg, AMK 200 mg/kg): 7.32*
- Ankle diameter (Mean) (CIA rats [1]; day 19, MTX 75 μg/kg, AMK 200 mg/kg): 6.03†
- Ankle diameter (Mean) (CIA rats [1]; day 21, MTX 75 μg/kg, AMK 200 mg/kg): 6.08†
- % Inhibition Ankle diameter (AUC) (CIA rats [1]; MTX 75 μg/kg, AMK 200 mg/kg): 65.94%
- % Inhibition Ankle diameter (AUC) (CIA rats [1]; MTX 0.5 mg/kg, AP 200 mg/kg): 93.59%
- percent reduction of area under the arthritis severity curve vs vehicle-treated CIA (CIA rats [2]; AMK CIA study, MTX 75 μg/kg, AMK 200 mg/kg oral, AUC days 9-21): 62.55% and 62.6%
- AUC(d9-d21) (Mean ± SD) Arthritis index (CIA rats [2]; AMK study, MTX 75 μg/kg, AMK 200 mg/kg): 4.87 ± 0.21
- average arthritis severity score at the end of the study (CIA rats [2]; [5]): 1.1±0.17
- percent reduction of area under the arthritis severity curve vs vehicle-treated CIA (CIA rats [2]; [5]): 78.8%
- AUC(d9-d21) (Mean ± SD) Arthritis index (CIA rats [2]; [4]): 5.00 ± 0.48
- Arthritis Index, Mean (CIA rats [2]; Boost, MTX 0.5 mg/kg, AP 200 mg/kg): 0.00
- Arthritis Index, Mean (CIA rats [2]; CIA, MTX 75 μg/kg, AMK 200 mg/kg oral, Boost): 0.00
- Arthritis Index, Mean (CIA rats [2]; CIA, MTX 75 μg/kg, AMK 200 mg/kg oral, Day 9): 0.00
- Arthritis Index, Mean (CIA rats [2]; CIA, MTX 75 μg/kg, AMK 200 mg/kg oral, Day 10): 0.00
- Arthritis Index, Mean (CIA rats [2]; CIA, MTX 75 μg/kg, AMK 200 mg/kg oral, Day 11): 0.00
- Arthritis Index, Mean (CIA rats [2]; CIA, MTX 75 μg/kg, AMK 200 mg/kg oral, Day 12): 0.23*
- Arthritis Index, Mean (CIA rats [2]; CIA, MTX 75 μg/kg, AMK 200 mg/kg oral, Day 13): 0.46^¥
- Arthritis Index, Mean (CIA rats [2]; CIA, MTX 75 μg/kg, AMK 200 mg/kg oral, Day 14): 0.70^¥
- Arthritis Index, Mean (CIA rats [2]; CIA, MTX 75 μg/kg, AMK 200 mg/kg oral, Day 15): 1.10^€
- Arthritis Index, Mean (CIA rats [2]; CIA, MTX 75 μg/kg, AMK 200 mg/kg oral, Day 16): 1.50^€
- Arthritis Index, Mean (CIA rats [2]; CIA, MTX 75 μg/kg, AMK 200 mg/kg oral, Priming): 0.00
- Arthritis Index, Mean (CIA rats [2]; CIA, MTX 75 μg/kg, AMK 200 mg/kg oral, day 17): 1.76^€
- Arthritis Index, Mean (CIA rats [2]; CIA, MTX 75 μg/kg, AMK 200 mg/kg oral, day 19): 2.03^€
- Arthritis Index, Mean (CIA rats [2]; CIA, MTX 75 μg/kg, AMK 200 mg/kg oral, day 21 (end of study)): 1.78±0.79
- Arthritis Index, Mean (CIA rats [2]; CIA, MTX 75 μg/kg, AMK 200 mg/kg oral, day 21 (end of study), listed as MTX): 1.78^€
- Arthritis Index, Mean (CIA rats [2]; Day 10, MTX 0.5 mg/kg, AP 200 mg/kg): 0
- Arthritis Index, Mean (CIA rats [2]; Day 11, MTX 0.5 mg/kg, AP 200 mg/kg): 0
- Arthritis Index, Mean (CIA rats [2]; Day 12, MTX 0.5 mg/kg, AP 200 mg/kg): 0.05**
- Arthritis Index, Mean (CIA rats [2]; Day 13, MTX 0.5 mg/kg, AP 200 mg/kg): 0**
- Arthritis Index, Mean (CIA rats [2]; Day 14, MTX 0.5 mg/kg, AP 200 mg/kg): 0**
- Arthritis Index, Mean (CIA rats [2]; Day 15, MTX 0.5 mg/kg, AP 200 mg/kg): 0.35**
- Arthritis Index, Mean (CIA rats [2]; Day 16, MTX 0.5 mg/kg, AP 200 mg/kg): 0.875**
- Arthritis Index, Mean (CIA rats [2]; Day 17, MTX 0.5 mg/kg, AP 200 mg/kg): 1**
- Arthritis Index, Mean (CIA rats [2]; Day 19, MTX 0.5 mg/kg, AP 200 mg/kg): 1.075**
- Arthritis Index, Mean (CIA rats [2]; Day 20, MTX 0.5 mg/kg, AP 200 mg/kg): 1.1**
- Arthritis Index, Mean (CIA rats [2]; Priming, MTX 0.5 mg/kg, AP 200 mg/kg): 0.00
- % Inhibition Arthritis index (AUC) (CIA rats [2]; MTX 75 μg/kg, AMK 200 mg/kg): 62.55%
- % Inhibition Arthritis index (AUC) (CIA rats [2]; MTX 0.5 mg/kg, AP 200 mg/kg): 78.78%
- serum IL-1β inhibition compared to diseased control (IL-1β): 71.5%
- Z score, Imbalance (catabolic − anabolic), Mean ± SE ([3]; (CTX-II)-(PIIANP), Methotrexate 0.5 mg/kg (printed), AMK 200 mg/kg): 1.30 ± 0.33
- Z score, Regeneration, Mean ± SE ([3]; from PIIANP, SDs from mean of normal control rats, Methotrexate 0.5 mg/kg (printed), AMK 200 mg/kg): −0.90 ± 0.16
- improvement in driving OA progression to normalcy relative to vehicle treated CIA rats ([3]; from imbalance Z score): 56.4%
- Z score, Degradation, Mean ± SE ([3]; from uCTX-II, SDs from mean of normal control rats, Methotrexate 0.5 mg/kg (printed), AMK 200 mg/kg): 0.39 ± 0.34
